Results: patent publication US10799605B2 (3B PHARMACEUTICALS GMBH, priority 2014, dated 2020)
Where two headings read alike, the source gives them in different places.

Columns and labels:
Type in all cases: binding
Conditions in all cases: Test Concentration 1.0E−05 M
sst (non-selective) = assay: ExpresSProfile: somatostatin receptor, agonist radioligand
delta 2 (DOP) (h) = delta 2 (DOP) (h) (Homo sapiens (Human), UniProt P41143); assay: ExpresSProfile: delta2 opioid receptor, agonist radioligand
M3 (h) = M3 (h) (Homo sapiens (Human), UniProt P20309); assay: ExpresSProfile: muscarinic receptor 3, antagonist radioligand
NK2 (h) = NK2 (h) (Homo sapiens (Human), UniProt P21452); assay: ExpresSProfile: neurokinin receptor 2, agonist radioligand
A3 (h) = A3 (h) (Homo sapiens (Human), UniProt P0DMS8); assay: ExpresSProfile: adenosine receptor 3, agonist radioligand
GABA (non-selective) = assay: ExpresSProfile: GABA, agonist radioligand
CCR1 (h) = CCR1 (h) (Homo sapiens (Human), UniProt P32246); assay: ExpresSProfile: C-C chemokine receptor type 1, agonist radioligand
alpha 1 (non-selective) = assay: ExpresSProfile: alpha1 adrenergic receptor, antagonist radioligand
beta 1 (h) = beta 1 (h) (Homo sapiens (Human), UniProt P08588); assay: ExpresSProfile: beta1 adrenergic receptor, agonist radioligand
beta 2 (h) = beta 2 (h) (Homo sapiens (Human), UniProt P07550); assay: ExpresSProfile: beta2 adrenergic receptor, agonist radioligand
EP4 (h) = EP4 (h) (Homo sapiens (Human), UniProt P35408); assay: ExpresSProfile: prostaglandin e receptor type 4, agonist radioligand
VPAC1 (VIP1) (h) = VPAC1 (VIP1) (h) (Homo sapiens (Human), UniProt P32241); assay: ExpresSProfile: vasoactive intestinal polypeptide receptor 1, agonist radioligand
CXCR2 (IL-8B) (h) = CXCR2 (IL-8B) (h) (Homo sapiens (Human), UniProt P25025); assay: ExpresSProfile: C-X-C chemokine receptor type 2, agonist radioligand
[1] = read-out: % Inhibition of Control Specific Binding
[2] = read-out: % of Control Specific Binding 1st
[3] = read-out: % of Control Specific Binding 2nd
[4] = read-out: % of Control Specific Binding Mean

Chain of EP4 (h) (P35408 whole entry): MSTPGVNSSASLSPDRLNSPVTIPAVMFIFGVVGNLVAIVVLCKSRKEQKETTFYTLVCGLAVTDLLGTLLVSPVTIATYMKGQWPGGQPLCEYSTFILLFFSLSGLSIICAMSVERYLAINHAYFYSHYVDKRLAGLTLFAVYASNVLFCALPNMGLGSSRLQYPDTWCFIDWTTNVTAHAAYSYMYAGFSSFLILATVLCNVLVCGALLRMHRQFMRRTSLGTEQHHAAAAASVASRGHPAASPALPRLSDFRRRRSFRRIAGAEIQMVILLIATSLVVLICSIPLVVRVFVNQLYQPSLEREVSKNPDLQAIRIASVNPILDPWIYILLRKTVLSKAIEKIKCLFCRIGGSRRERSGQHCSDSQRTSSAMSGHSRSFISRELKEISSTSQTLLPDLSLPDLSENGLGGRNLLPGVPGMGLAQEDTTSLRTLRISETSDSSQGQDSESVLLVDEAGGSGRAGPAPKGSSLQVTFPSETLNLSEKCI
Chain of delta 2 (DOP) (h) (P41143 whole entry): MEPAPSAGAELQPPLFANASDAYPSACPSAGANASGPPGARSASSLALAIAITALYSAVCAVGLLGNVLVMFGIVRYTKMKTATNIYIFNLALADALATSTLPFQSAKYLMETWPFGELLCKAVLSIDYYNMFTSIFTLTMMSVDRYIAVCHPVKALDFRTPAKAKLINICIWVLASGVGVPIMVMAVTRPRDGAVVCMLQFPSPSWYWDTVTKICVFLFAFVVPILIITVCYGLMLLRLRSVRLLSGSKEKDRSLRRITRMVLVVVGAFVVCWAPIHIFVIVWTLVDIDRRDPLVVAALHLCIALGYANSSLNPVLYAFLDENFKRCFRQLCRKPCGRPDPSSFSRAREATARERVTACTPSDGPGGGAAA
Chain of CXCR2 (IL-8B) (h) (P25025 whole entry): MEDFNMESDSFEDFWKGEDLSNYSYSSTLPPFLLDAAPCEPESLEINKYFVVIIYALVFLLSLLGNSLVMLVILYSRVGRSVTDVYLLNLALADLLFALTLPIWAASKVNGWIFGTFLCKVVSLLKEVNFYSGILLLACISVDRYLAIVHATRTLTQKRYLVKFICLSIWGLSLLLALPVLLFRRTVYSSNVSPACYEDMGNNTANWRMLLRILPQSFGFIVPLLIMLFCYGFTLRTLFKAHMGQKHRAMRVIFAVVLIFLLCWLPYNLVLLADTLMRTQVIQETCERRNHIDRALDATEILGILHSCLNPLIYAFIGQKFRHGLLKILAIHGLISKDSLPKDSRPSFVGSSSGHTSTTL
Chain of VPAC1 (VIP1) (h) (P32241 31-457): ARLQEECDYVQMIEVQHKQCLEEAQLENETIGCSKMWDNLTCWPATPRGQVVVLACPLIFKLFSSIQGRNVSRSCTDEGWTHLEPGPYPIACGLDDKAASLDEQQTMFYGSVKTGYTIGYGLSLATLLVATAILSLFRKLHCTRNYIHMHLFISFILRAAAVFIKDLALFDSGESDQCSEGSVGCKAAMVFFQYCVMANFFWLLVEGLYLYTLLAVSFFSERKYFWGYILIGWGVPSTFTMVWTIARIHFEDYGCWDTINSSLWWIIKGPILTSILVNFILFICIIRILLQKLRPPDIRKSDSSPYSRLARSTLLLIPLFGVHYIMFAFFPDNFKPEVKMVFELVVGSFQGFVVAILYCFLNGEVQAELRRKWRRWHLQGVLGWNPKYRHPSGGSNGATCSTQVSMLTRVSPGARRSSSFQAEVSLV
Chain of M3 (h) (P20309 whole entry): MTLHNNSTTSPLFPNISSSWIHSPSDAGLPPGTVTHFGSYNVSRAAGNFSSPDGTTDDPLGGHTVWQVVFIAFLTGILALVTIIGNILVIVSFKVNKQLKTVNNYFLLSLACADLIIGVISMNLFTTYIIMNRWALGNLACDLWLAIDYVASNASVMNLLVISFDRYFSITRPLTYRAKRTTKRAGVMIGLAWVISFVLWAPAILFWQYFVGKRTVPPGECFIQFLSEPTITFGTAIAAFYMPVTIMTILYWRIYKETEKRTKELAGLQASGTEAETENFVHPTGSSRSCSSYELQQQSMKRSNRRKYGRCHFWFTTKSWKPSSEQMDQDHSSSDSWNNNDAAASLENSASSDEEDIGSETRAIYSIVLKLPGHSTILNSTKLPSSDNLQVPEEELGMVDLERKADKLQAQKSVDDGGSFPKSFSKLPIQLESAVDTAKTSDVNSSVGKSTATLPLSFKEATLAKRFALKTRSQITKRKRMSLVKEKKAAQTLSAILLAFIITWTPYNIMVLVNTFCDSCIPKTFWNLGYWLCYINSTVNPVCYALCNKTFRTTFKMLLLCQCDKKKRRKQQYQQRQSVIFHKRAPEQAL
Chain of A3 (h) (P0DMS8 whole entry): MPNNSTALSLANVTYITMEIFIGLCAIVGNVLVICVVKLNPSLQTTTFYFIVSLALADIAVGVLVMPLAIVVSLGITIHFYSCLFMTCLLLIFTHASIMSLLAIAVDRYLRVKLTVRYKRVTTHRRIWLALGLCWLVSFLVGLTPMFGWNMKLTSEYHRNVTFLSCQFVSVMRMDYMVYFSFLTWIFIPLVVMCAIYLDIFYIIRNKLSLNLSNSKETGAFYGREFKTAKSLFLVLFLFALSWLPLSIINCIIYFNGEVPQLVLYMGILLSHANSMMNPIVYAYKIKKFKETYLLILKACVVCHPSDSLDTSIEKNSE
Chain of beta 2 (h) (P07550 whole entry): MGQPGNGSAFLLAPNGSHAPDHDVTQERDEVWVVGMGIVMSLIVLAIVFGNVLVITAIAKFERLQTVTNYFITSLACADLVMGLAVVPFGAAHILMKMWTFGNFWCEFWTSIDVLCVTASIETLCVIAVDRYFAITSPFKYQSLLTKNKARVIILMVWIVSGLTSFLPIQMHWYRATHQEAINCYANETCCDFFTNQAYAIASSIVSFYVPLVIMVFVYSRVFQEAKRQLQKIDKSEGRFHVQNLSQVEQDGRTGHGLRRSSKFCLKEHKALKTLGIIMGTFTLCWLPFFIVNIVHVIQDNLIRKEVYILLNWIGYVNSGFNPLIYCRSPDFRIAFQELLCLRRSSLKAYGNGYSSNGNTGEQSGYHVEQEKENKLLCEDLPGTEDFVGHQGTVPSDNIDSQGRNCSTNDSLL
Chain of CCR1 (h) (P32246 whole entry): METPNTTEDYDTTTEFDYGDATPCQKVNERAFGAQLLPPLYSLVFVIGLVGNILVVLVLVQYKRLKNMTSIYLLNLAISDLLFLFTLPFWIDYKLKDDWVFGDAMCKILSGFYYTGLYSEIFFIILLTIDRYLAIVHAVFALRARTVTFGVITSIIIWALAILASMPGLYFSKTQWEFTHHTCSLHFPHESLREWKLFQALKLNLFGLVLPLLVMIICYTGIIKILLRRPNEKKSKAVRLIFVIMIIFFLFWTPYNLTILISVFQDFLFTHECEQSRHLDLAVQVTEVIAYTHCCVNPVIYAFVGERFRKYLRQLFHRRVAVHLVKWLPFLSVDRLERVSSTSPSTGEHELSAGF
Chain of NK2 (h) (P21452 whole entry): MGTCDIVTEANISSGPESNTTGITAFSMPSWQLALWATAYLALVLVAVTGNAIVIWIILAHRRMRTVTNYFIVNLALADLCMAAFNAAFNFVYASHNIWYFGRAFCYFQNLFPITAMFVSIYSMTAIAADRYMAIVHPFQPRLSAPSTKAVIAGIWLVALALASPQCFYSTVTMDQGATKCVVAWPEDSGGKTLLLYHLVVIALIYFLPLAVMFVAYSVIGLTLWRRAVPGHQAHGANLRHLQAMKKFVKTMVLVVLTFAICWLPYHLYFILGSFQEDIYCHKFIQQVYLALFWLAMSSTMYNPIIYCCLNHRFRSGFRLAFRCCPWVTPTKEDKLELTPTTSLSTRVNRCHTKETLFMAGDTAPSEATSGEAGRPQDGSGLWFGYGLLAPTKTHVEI
Chain of beta 1 (h) (P08588 whole entry): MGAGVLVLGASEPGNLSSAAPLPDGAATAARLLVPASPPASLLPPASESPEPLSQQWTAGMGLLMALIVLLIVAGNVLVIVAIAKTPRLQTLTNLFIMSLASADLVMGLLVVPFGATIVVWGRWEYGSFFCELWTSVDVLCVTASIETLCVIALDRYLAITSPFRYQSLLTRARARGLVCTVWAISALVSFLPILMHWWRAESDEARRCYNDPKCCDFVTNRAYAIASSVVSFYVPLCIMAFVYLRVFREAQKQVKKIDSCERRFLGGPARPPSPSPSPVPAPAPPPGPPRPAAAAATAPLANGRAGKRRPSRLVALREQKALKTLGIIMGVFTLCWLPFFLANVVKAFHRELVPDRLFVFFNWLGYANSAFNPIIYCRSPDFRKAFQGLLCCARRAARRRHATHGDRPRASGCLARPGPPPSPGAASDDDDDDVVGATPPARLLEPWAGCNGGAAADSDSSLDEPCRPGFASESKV

Which “% Inhibition of Control Specific Binding” value (sst (non-selective)) does the source give for `COc1cccc(OC)c1-c1cc(C(=O)NC2(C(=O)O)C3CC4CC(C3)CC2C4)nn1-c1ccc(C(=O)N(C)CCCN(C)CCCN(C)C(=O)CN2CCN(CC(=O)O)CCN(CC(=O)O)CCN(CC(=O)O)CC2)cc1C(C)C` (centres unmarked) [(IIIa), 2-{[1-{4-[(3-{[3-(DOTA-methyl-amino)-propyl]-methyl-amino}-propyl)-methyl-carbamoyl]-2-isopropyl-phenyl}-5-(2,6-dimethoxy-phenyl)-1H-pyrazole-3-carbonyl]-amino}-adamantane-2-carboxylic acid] here?
The value was −11%.

And the “% of Control Specific Binding 1st” value (sst (non-selective))?
Its value is 111.6%.

What about the “% of Control Specific Binding 2nd” value (sst (non-selective)) of the same compound?
Its value is 110.0%.

What about the “% of Control Specific Binding Mean” value (sst (non-selective)) of the same compound?
Its value is 110.8%.

What about the inhibition at 10 µM (delta 2 (DOP) (h); [1]) of the same compound?
Its inhibition at 10 µM is -6%.

And the remaining activity at 10 µM (delta 2 (DOP) (h); [2])?
Its remaining activity at 10 µM is 107%.

What about the remaining activity at 10 µM (delta 2 (DOP) (h); [3]) of the same compound?
Its remaining activity at 10 µM is 105%.

What about the remaining activity at 10 µM (delta 2 (DOP) (h); [4]) of the same compound?
The remaining activity at 10 µM was 106%.

And the inhibition at 10 µM (M3 (h); [1])?
Its inhibition at 10 µM is -23%.

What about the remaining activity at 10 µM (M3 (h); [2]) of the same compound?
The remaining activity at 10 µM was 122%.

What about the remaining activity at 10 µM (M3 (h); [3]) of the same compound?
Its remaining activity at 10 µM is 124%.

What about the remaining activity at 10 µM (M3 (h); [4]) of the same compound?
The remaining activity at 10 µM was 124%.

What about the “% Inhibition of Control Specific Binding” value (NK2 (h)) of the same compound?
Its value is 66%.

And the inhibition at 10 µM (NK2 (h); [1])?
The inhibition at 10 µM was 66%.

What about the remaining activity at 10 µM (NK2 (h); [2]) of the same compound?
The remaining activity at 10 µM was 34.5%.

What about the remaining activity at 10 µM (NK2 (h); [3]) of the same compound?
The remaining activity at 10 µM was 33.7%.

And the remaining activity at 10 µM (NK2 (h); [4])?
The remaining activity at 10 µM was 34.1%.

And the inhibition at 10 µM (A3 (h); [1])?
Its inhibition at 10 µM is -41%.

What about the remaining activity at 10 µM (A3 (h); [2]) of the same compound?
The remaining activity at 10 µM was 129%.

And the remaining activity at 10 µM (A3 (h); [3])?
Its remaining activity at 10 µM is 154%.

What about the remaining activity at 10 µM (A3 (h); [4]) of the same compound?
The remaining activity at 10 µM was 141%.

And the “% Inhibition of Control Specific Binding” value (GABA (non-selective))?
Its value is −6%.

What about the “% of Control Specific Binding 1st” value (GABA (non-selective)) of the same compound?
Its value is 101.9%.

What about the “% of Control Specific Binding 2nd” value (GABA (non-selective)) of the same compound?
The value was 109.9%.

And the “% of Control Specific Binding Mean” value (GABA (non-selective))?
Its value is 105.9%.

And the inhibition at 10 µM (CCR1 (h); [1])?
The inhibition at 10 µM was -6%.

What about the remaining activity at 10 µM (CCR1 (h); [2]) of the same compound?
The remaining activity at 10 µM was 103%.

What about the remaining activity at 10 µM (CCR1 (h); [3]) of the same compound?
Its remaining activity at 10 µM is 109%.

What about the remaining activity at 10 µM (CCR1 (h); [4]) of the same compound?
Its remaining activity at 10 µM is 106%.

What about the “% Inhibition of Control Specific Binding” value (alpha 1 (non-selective)) of the same compound?
Its value is −9%.

And the “% of Control Specific Binding 1st” value (alpha 1 (non-selective))?
The value was 106.2%.

What about the “% of Control Specific Binding 2nd” value (alpha 1 (non-selective)) of the same compound?
Its value is 111.1%.

And the “% of Control Specific Binding Mean” value (alpha 1 (non-selective))?
Its value is 108.7%.

And the inhibition at 10 µM (beta 1 (h); [1])?
Its inhibition at 10 µM is 2%.

And the remaining activity at 10 µM (beta 1 (h); [2])?
The remaining activity at 10 µM was 89.9%.

What about the remaining activity at 10 µM (beta 1 (h); [3]) of the same compound?
Its remaining activity at 10 µM is 106%.

What about the remaining activity at 10 µM (beta 1 (h); [4]) of the same compound?
Its remaining activity at 10 µM is 98%.

And the inhibition at 10 µM (beta 2 (h); [1])?
The inhibition at 10 µM was -2%.

What about the remaining activity at 10 µM (beta 2 (h); [2]) of the same compound?
The remaining activity at 10 µM was 107%.

What about the remaining activity at 10 µM (beta 2 (h); [3]) of the same compound?
Its remaining activity at 10 µM is 96.5%.

And the remaining activity at 10 µM (beta 2 (h); [4])?
Its remaining activity at 10 µM is 102%.

And the inhibition at 10 µM (EP4 (h); [1])?
The inhibition at 10 µM was 8%.

What about the remaining activity at 10 µM (EP4 (h); [2]) of the same compound?
Its remaining activity at 10 µM is 89.2%.

What about the remaining activity at 10 µM (EP4 (h); [3]) of the same compound?
Its remaining activity at 10 µM is 95.5%.

What about the remaining activity at 10 µM (EP4 (h); [4]) of the same compound?
Its remaining activity at 10 µM is 92.3%.

And the inhibition at 10 µM (VPAC1 (VIP1) (h); [1])?
Its inhibition at 10 µM is -6%.

And the remaining activity at 10 µM (VPAC1 (VIP1) (h); [2])?
Its remaining activity at 10 µM is 104%.

And the remaining activity at 10 µM (VPAC1 (VIP1) (h); [3])?
The remaining activity at 10 µM was 107%.

And the remaining activity at 10 µM (VPAC1 (VIP1) (h); [4])?
The remaining activity at 10 µM was 106%.

And the inhibition at 10 µM (CXCR2 (IL-8B) (h); [1])?
Its inhibition at 10 µM is -9%.

And the remaining activity at 10 µM (CXCR2 (IL-8B) (h); [2])?
The remaining activity at 10 µM was 119%.

What about the remaining activity at 10 µM (CXCR2 (IL-8B) (h); [3]) of the same compound?
The remaining activity at 10 µM was 99.6%.

What about the remaining activity at 10 µM (CXCR2 (IL-8B) (h); [4]) of the same compound?
Its remaining activity at 10 µM is 109%.
